Where “and” joins values, the source holds several entries; their conditions need not be identical. Equal values may be shown once. Toxic doses and inconclusive results are not listed. Cut-off read from the data, not from the text of the source: active = T/C of 150% or more; inactive = T/C below 125%.
Test system: L1210 leukemia ip in BDF1 mice, survival T/C
Assay: NCI In Vivo Anticancer Drug Screen. Data for tumor model L1210 Leukemia (intraperitoneal) in B6D2F1 (BDF1) mice
Conditions: endpoint: mean survival time, higher = longer survival
Outline: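 In this screen, tumor-bearing mice given compound are compared to those given vehicle, and their survival values are reported as a treated-to-control quotient.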

[1] = dose: 100.0 mg/kg/injection, schedule: Q01DX001 (ip), vehicle: Klucel (hydroxypropylcellulose) (HPC)
[2] = dose: 100.0 mg/kg/injection, schedule: Q04DX003 (ip), vehicle: saline with Tween-80
[3] = dose: 100.0 mg/kg/injection, schedule: Q01DX009 (ip), vehicle: saline with Tween-80
[4] = dose: 200.0 mg/kg/injection, schedule: Q01DX009 (ip), vehicle: saline with Tween-80
[5] = dose: 400.0 mg/kg/injection, schedule: Q01DX009 (ip), vehicle: saline with Tween-80
[6] = dose: 50.0 mg/kg/injection, schedule: Q01DX009 (ip), vehicle: saline with Tween-80
[7] = dose: 100.0 mg/kg/injection, schedule: Q01DX001 (ip), vehicle: saline with Tween-80
[8] = dose: 100.0 mg/kg/injection, schedule: Q04DX002 (ip), vehicle: saline with Tween-80
[9] = dose: 200.0 mg/kg/injection, schedule: Q01DX001 (ip), vehicle: saline with Tween-80
[10] = dose: 200.0 mg/kg/injection, schedule: Q04DX002 (ip), vehicle: saline with Tween-80
[11] = dose: 200.0 mg/kg/injection, schedule: Q04DX003 (ip), vehicle: saline with Tween-80
[12] = dose: 400.0 mg/kg/injection, schedule: Q01DX001 (ip), vehicle: saline with Tween-80
[13] = dose: 400.0 mg/kg/injection, schedule: Q04DX002 (ip), vehicle: saline with Tween-80
[14] = dose: 400.0 mg/kg/injection, schedule: Q04DX003 (ip), vehicle: saline with Tween-80

Measured: T/C

COc1cc2c(cc1OC)C13CCN4CC5=CCOC6CC(=O)N2C1C6C5CC43 (stereo unspecified) (tested in a mixture with another compound)
inactive: dose: 12.0 mg/kg/injection, schedule: Q01DX001 (ip), vehicle: Klucel (hydroxypropylcellulose) (HPC) 89 % of control | dose: 12.0 mg/kg/injection, schedule: Q01DX009 (ip), vehicle: Klucel (hydroxypropylcellulose) (HPC) 97 % of control | dose: 12.5 mg/kg/injection, schedule: Q01DX001 (ip), vehicle: Klucel (hydroxypropylcellulose) (HPC) 101 % of control | dose: 12.5 mg/kg/injection, schedule: Q01DX009 (ip), vehicle: saline 97 % of control | dose: 25.0 mg/kg/injection, schedule: Q01DX001 (ip), vehicle: Klucel (hydroxypropylcellulose) (HPC) 95 % of control and 93 % of control | dose: 25.0 mg/kg/injection, schedule: Q01DX001 (ip), vehicle: saline with Tween-80 89 % of control | dose: 25.0 mg/kg/injection, schedule: Q01DX009 (ip), vehicle: Klucel (hydroxypropylcellulose) (HPC) 96 % of control | dose: 25.0 mg/kg/injection, schedule: Q01DX009 (ip), vehicle: saline 97 % of control | dose: 25.0 mg/kg/injection, schedule: Q04DX003 (ip), vehicle: Klucel (hydroxypropylcellulose) (HPC) 104 % of control | dose: 25.0 mg/kg/injection, schedule: Q04DX003 (ip), vehicle: saline with Tween-80 94 % of control | dose: 25.0 mg/kg/injection, schedule: Q04DX003 (ip), vehicle: saline 111 % of control | dose: 50.0 mg/kg/injection, schedule: Q01DX001 (ip), vehicle: Klucel (hydroxypropylcellulose) (HPC) 100 % of control and 102 % of control | dose: 50.0 mg/kg/injection, schedule: Q01DX001 (ip), vehicle: saline with Tween-80 96 % of control | dose: 50.0 mg/kg/injection, schedule: Q01DX009 (ip), vehicle: Klucel (hydroxypropylcellulose) (HPC) 91 % of control | dose: 50.0 mg/kg/injection, schedule: Q01DX009 (ip), vehicle: saline 106 % of control | dose: 50.0 mg/kg/injection, schedule: Q04DX003 (ip), vehicle: Klucel (hydroxypropylcellulose) (HPC) 107 % of control | dose: 50.0 mg/kg/injection, schedule: Q04DX003 (ip), vehicle: saline with Tween-80 100 % of control | dose: 50.0 mg/kg/injection, schedule: Q04DX003 (ip), vehicle: saline 107 % of control | dose: 75.0 mg/kg/injection, schedule: Q01DX001 (ip), vehicle: other 95 % of control | dose: 75.0 mg/kg/injection, schedule: Q01DX001 (ip), vehicle: saline 98 % of control and 94 % of control and 107 % of control | dose: 75.0 mg/kg/injection, schedule: Q01DX009 (ip), vehicle: saline 107 % of control | [1] 103 % of control | dose: 100.0 mg/kg/injection, schedule: Q04DX003 (ip), vehicle: Klucel (hydroxypropylcellulose) (HPC) 95 % of control | [2] 89 % of control | dose: 150.0 mg/kg/injection, schedule: Q01DX001 (ip), vehicle: other 86 % of control | dose: 150.0 mg/kg/injection, schedule: Q01DX001 (ip), vehicle: saline 98 % of control | dose: 200.0 mg/kg/injection, schedule: Q04DX003 (ip), vehicle: Klucel (hydroxypropylcellulose) (HPC) 90 % of control | dose: 300.0 mg/kg/injection, schedule: Q01DX001 (ip), vehicle: other 89 % of control

c1ccc(-c2cc[s+]s2)cc1
inactive: dose: 12.5 mg/kg/injection, schedule: Q01DX009 (ip), vehicle: water 95 % of control | dose: 12.5 mg/kg/injection, schedule: Q04DX003 (ip), vehicle: water 98 % of control | dose: 25.0 mg/kg/injection, schedule: Q01DX009 (ip), vehicle: water 91 % of control | dose: 25.0 mg/kg/injection, schedule: Q04DX003 (ip), vehicle: water 96 % of control | dose: 50.0 mg/kg/injection, schedule: Q01DX009 (ip), vehicle: water 98 % of control | dose: 50.0 mg/kg/injection, schedule: Q04DX003 (ip), vehicle: water 109 % of control

Cc1ccc(C(O)(c2ccccc2)c2ccccc2C(=O)Nc2ccccc2)cc1 (stereo unspecified)
inactive: [3] 95 % of control | [4] 90 % of control | [5] 92 % of control

O=C(COc1ccccc1)N/N=C/c1cccc([N+](=O)[O-])c1
inactive: dose: 25.0 mg/kg/injection, schedule: Q01DX009 (ip), vehicle: saline with Tween-80 92 % of control | [6] 86 % of control | [3] 86 % of control

O=C(CCc1ccccc1)NC(=S)Nc1ccc(I)cc1
inactive: dose: 12.5 mg/kg/injection, schedule: Q01DX009 (ip), vehicle: saline with Tween-80 94 % of control and 90 % of control | [7] 106 % of control | [8] 104 % of control | [2] 100 % of control | [9] 103 % of control | [10] 93 % of control and 101 % of control | [11] 97 % of control | [12] 91 % of control | [5] 95 % of control and 99 % of control | [13] 101 % of control and 90 % of control | [14] 96 % of control

CC(=O)Nc1ccc(N=Nc2ccccc2)cc1
inactive: [1] 100 % of control | dose: 200.0 mg/kg/injection, schedule: Q01DX001 (ip), vehicle: Klucel (hydroxypropylcellulose) (HPC) 100 % of control | dose: 400.0 mg/kg/injection, schedule: Q01DX001 (ip), vehicle: Klucel (hydroxypropylcellulose) (HPC) 96 % of control

CC(Oc1ccccc1)C(=O)NC(=S)Nc1cccc2ccccc12 (stereo unspecified)
inactive: [6] 90 % of control and 91 % of control | [7] 108 % of control | [3] 100 % of control and 86 % of control | [8] 108 % of control and 114 % of control | [2] 108 % of control | [9] 95 % of control | [10] 93 % of control and 105 % of control | [11] 92 % of control | [12] 93 % of control | [13] 93 % of control and 88 % of control | [14] 92 % of control

COC(=O)C1(C(=O)OC)CC1CCl (stereo unspecified)
inactive: [3] 96 % of control | [2] 101 % of control | [4] 105 % of control | [11] 101 % of control | [5] 93 % of control | [14] 95 % of control

Source: PubChem BioAssay AID248 (DTP/NCI, 2004)
